Reference: ChEMBL document CHEMBL1146401, “A bioactive seco-rosane diterpenoid from Vellozia candida” (1997)

Experiments:
Saccharomyces cerevisiae [1] = experiment: DNA damaging activity against DNA repair-deficient Saccharomyces cerevisiae RS 322YK (rad 52Y) mutant assessed as drug level required to produce 12 mm zone of inhibition after 48 hrs; assay type: functional
Saccharomyces cerevisiae [2] = experiment: DNA damaging activity against DNA […] Saccharomyces cerevisiae RS 188N (RAD+) mutant assessed as drug level required to produce 12 mm zone of inhibition after 48 hrs; assay type: functional

C=C[C@@]1(C)C[C@@H]2OC(=O)C3=C(CCCC3(C)C)[C@@]2(C)[C@H](C(=O)O)C1 [CANDIDALACTONE]
Activity (Saccharomyces cerevisiae [1]): 87 µg/mL
Activity (Saccharomyces cerevisiae [2]): >200 µg/mL
